The values below come from patent EP1083873B1 (MGI GP, Inc., priority 1998, dated 1999).

The structures appear in SMILES notation.

The subject of one assay is C57 black 6 mice. As to the kind of experiment: In vivo hair generation test, Experiment B (shaved C57 Black 6 mice, topical, 14 days). To be noted: one micromole per milliliter topical, three times per week, 14 days after initiation of treatment. The protocol: Care was taken not to nick or cause abrasion to the underlying dermal layers. The animals were in anagen growth phase when shaved. […] The animals were treated three times per week, and hair growth was evaluated 14 days after initiation of treatment.
Turning to `CCC(C)(C)C(=O)C(=O)N1CCC[C@H]1C(=O)SCCC(c1ccccc1)c1ccccc1` [GPI 1234], the “hair growth (Figure 5, relative hair growth index)” value is “dramatic hair growth”. As to `CCC(C)(C)C(=O)C(=O)N1CCCC[C@H]1C(=O)SCCC(c1ccccc1)c1ccccc1` [GPI 1511], the “hair growth (Figure 5, relative hair growth index)” value was “dramatic hair growth”.

A further assay concerns C57 black 6 mice. As to the kind of experiment: In vivo hair generation test, Experiment A (shaved C57 black 6 mice, topical). To be noted: 30 µM topical in 20% propylene glycol, 3 applications over 5 days, after six weeks. From the text: Care was taken not to nick or cause abrasion to the underlaying dermal layers. The animals were in anagen growth phase, as indicated by the pinkish color of the skin. […] Hair growth was quantitated by the percent of shaved area covered by new hair growth during this time period.
Regarding `CCC(C)(C)C(=O)C(=O)N1CCC[C@H]1C(=O)OCCCc1cccnc1` [GPI 1046, 3-(3-pyridyl)-1-propyl (2s)-1-(3,3-dimethyl-1,2-dioxopentyl)-2-pyrrolidinecarboxylate], the “hair regrowth in the shaved area” value was “essentially complete hair regrowth”.

For another assay, the target named is FKBP12 (Homo sapiens, UniProt P62942). As to the kind of experiment: Ki test procedure: inhibition of peptidyl-prolyl isomerase (rotamase) activity, chymotrypsin-coupled assay. In kind it is biochemical.
Chain of FKBP12 (P62942 whole entry, species assumed): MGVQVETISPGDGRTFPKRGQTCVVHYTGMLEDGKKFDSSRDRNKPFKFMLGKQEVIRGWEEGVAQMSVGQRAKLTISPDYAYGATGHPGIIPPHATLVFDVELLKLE
Details: not given
From the text:
The inhibition of the prolyl peptidyl cis-trans isomerase activity of FKBP may be measured as an indicator of this affinity.
Inhibition of the peptidyl-prolyl isomerase (rotamase) activity of the compounds used in the inventive methods and pharmaceutical compositions can be evaluated by known methods described in the literature (Harding et al., Nature, 1989, 341:758-760; Holt et al. J. Am. Chem. Soc., 115:9923-9938).
The cis-trans isomerization of an alanine-proline bond in a model substrate, N-succinyl-Ala-Ala-Pro-Phe-p-nitroanilide, is monitored spectrophotometrically in a chymotrypsin-coupled assay, which releases paranitroanilide from the trans form of the substrate. The inhibition of this reaction caused by the addition of different concentrations of inhibitor is determined, and the data is analyzed as a change in first-order rate constant as a function of inhibitor concentration to yield the apparent Ki values.
In a plastic cuvette are added […] of ice cold assay buffer (25 mM HEPES, pH 7.8, 100 mM NaCl), 10 mL of FKBP (2.5 mM in 10 mM Tris-Cl pH 7.5, 100 mM NaCl, 1 mM dithiothreitol), […] of chymotrypsin (50 mg/ml in 1 mM HCl) and […] of test compound at various concentrations in dimethyl sulfoxide. The reaction is initiated by the addition of 5 mL of substrate (succinyl-Ala-Phe-Pro-Phe-para-nitroanilide, 5 mg/mL in 2.35 mM LiCl in trifluoroethanol).
The absorbance at 390 nm versus time is monitored for 90 seconds using a spectrophotometer and the rate constants are determined from the absorbance versus time data files.
Turning to `CC(C)(C)C(=O)C(=O)N1CCCCC1C(=O)SCCCCc1ccccc1` (stereo not drawn) [Compound 39], the Ki worked out at 347 nM. Regarding `CCC(C)(C)C(=O)C(=O)N1CCCCC1C(=O)SCCCc1ccccc1` (stereo not drawn) [Compound 60], the Ki is 90 nM. For the compound `O=C(C(=O)N1CCC[C@H]1C(=O)SCCCCc1ccccc1)C1CCCCC1` [Compound 33], the Ki turned out to be 1700 nM. On the same count and under the same terms, for `O=C(C(=O)N1CCC[C@H]1C(=O)SCCCc1cccnc1)C1CCCCC1` [Compound 35] the value was 62 nM; for `CCC(C)(C)C(=O)C(=O)N1CCCCC1C(=O)SCCCCc1ccccc1` (stereo not drawn) [Compound 59], 962 nM. The same measure, in the same setting: the value for `CC(C)(C)C(=O)C(=O)N1CCCCC1C(=O)SCCCc1ccccc1` (stereo not drawn) [Compound 29] was 59 nM. Still for that read-out and setting: the value for `CCC(C)(C)C(=O)C(=O)N1CCCC1C(=O)SCCCC(c1ccc(F)cc1)c1ccc(F)cc1` (stereo not drawn) [Compound 46] was 757 nM. `CCC(C)(C)C(=O)C(=O)N1CCC[C@H]1C(=O)SCCCc1ccccc1F` [Compound 57]: the Ki came to 57 nM. On to `COc1ccc(CCCSC(=O)C2CCCCN2C(=O)C(=O)c2ccccc2)cc1` (stereo not drawn) [Compound 43], for which the Ki is 259 nM. The same measure, in the same setting: for `CCC(C)(C)C(=O)C(=O)N1CCC[C@H]1C(=O)SCCCc1cccc(F)c1` [Compound 58] the value was 79 nM. `O=C(C(=O)N1CCC[C@H]1C(=O)SCCc1ccccc1)C1CCCCC1` [Compound 12] showed a Ki of 442 nM. As to `CCC(C)(C)C(=O)C(=O)N1CCC[C@H]1C(=O)SCCCc1ccccc1Cl` [Compound 61], the Ki was determined as 139 nM.

In the case of `O=C(C(=O)N1CCCCC1C(=O)SCCc1ccccc1)c1ccccc1` (stereo not drawn) [Compound 14], the Ki is 313 nM. On the same count and under the same terms, for `CCC(C)(C)C(=O)C(=O)N1CCCCC1C(=O)SCCCc1cccc(F)c1` (stereo not drawn) [Compound 64] the value was 163 nM. Compound `CCC(C)(C)C(=O)C(=O)N1CCC[C@H]1C(=O)SCCCc1cccc(Cl)c1` [Compound 54] gave a Ki of 37 nM. In the case of `CCC(C)(C)C(=O)C(=O)N1CCC[C@H]1C(=O)SCCCc1cccc2ccccc12` [Compound 47], the Ki worked out at 21 nM.

The assay is the same for the next values; noted with them: apparent Ki, rotamase inhibition.
Consider `CCC(C)(C)C(=O)C(=O)N1CCCCC1C(=O)SCCCc1ccc2ccccc2c1` [Compound 53, 3-(2-Naphthyl)propyl (2R, S) -1-(3,3-dimethyl-2-oxopentanoyl)-2-piperidinecarbothioate], for which the Ki was determined as 261 nM.

Still in this assay, the particulars now being: apparent Ki, rotamase inhibition; read-out: Ki.
As for `CCC(C)(C)C(=O)C(=O)N1CCC[C@H]1C(=O)SCc1csc2ccccc12` [Compound 11, (3-Thioindolyl) methyl (2S) -1-(3,3-dimethyl-1,2-dioxopentyl)-2-pyrrolidinecarbothioate], the Ki was determined as 299 nM.
